The results in this text go back to ChEMBL document CHEMBL1201862, “PubChem BioAssay data set” (2004).

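Following 48 hours of exposure in 96-well plates, responses at five concentrations were used to interpolate endpoints linearly. GI50 marks 50% less growth.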 The source made the active and inactive calls. No stated cut-off is given here; in the data, active = GI50 up to about 1.1 µM and inactive = higher.

Test systems include 786-0; A498; CAKI-1; CCRF-CEM; HCT-116; HCT-15; HOP-62; HOP-92; HT-29; IGROV-1; LOX IMVI; OVCAR-3; OVCAR-8; SF-295; SK-MEL-2; SN12C; SW-620; SR.
Common to all, as to test: NCI-60 cell line screen, 48 h

Regarding `CCOc1ccccc1N1C(=O)C(=O)C(c2nc3ccccc3o2)/C(=N\N)C1=O` (stereo unspecified), the GI50 with 786-0 was > 100 µM (inactive); in the experiment with A498, > 100 µM (inactive); in the experiment on CAKI-1, > 100 µM (inactive); in the experiment on CCRF-CEM, > 100 µM (inactive); with HCT-116, 79.8 µM (inactive); in the experiment with HCT-15, above 100 µM. In addition, the GI50 with HOP-62 is > 100 µM (inactive); in the experiment on HOP-92 it was > 100 µM (inactive); with HT-29, 70.5 µM (inactive); in the experiment on IGROV-1, > 100 µM (inactive); in the experiment on LOX IMVI, > 100 µM (inactive); with OVCAR-3, > 100 µM (inactive). Moreover, the GI50 with OVCAR-8, with SF-295, in the experiment on SK-MEL-2, in the experiment with SN12C and in the experiment with SW-620 was > 100 µM (inactive) each time.

On to `CC1(C=O)C(=O)CCC2(C)C3CC(=O)OC3CCC12` (stereo unspecified), for which the GI50 in the experiment with 786-0 was > 100 µM (inactive); with CAKI-1, > 100 µM (inactive); in the experiment with CCRF-CEM, > 100 µM (inactive); in the experiment on HCT-15, above 100 µM; with HOP-62 it was > 100 µM (inactive); with HOP-92 it was > 100 µM (inactive). Further, the GI50 in the experiment on HT-29, with IGROV-1, in the experiment with LOX IMVI, in the experiment with OVCAR-3, in the experiment on OVCAR-8 and in the experiment on SF-295 was > 100 µM (inactive) throughout. Moreover, the GI50 in the experiment on SK-MEL-2, with SN12C and in the experiment with SW-620 was > 100 µM (inactive) throughout.

`Clc1ccccc1CN1COc2c(ccc3cccnc23)C1`: the GI50 in the experiment on 786-0 was 4.28 µM (inactive); in the experiment with A498 it was 8.24 µM (inactive); in the experiment with CAKI-1 it was 2.88 µM (inactive); in the experiment with CCRF-CEM, 0.405 µM (active); in the experiment with HCT-116 it was 3.07 µM (inactive); in the experiment on HCT-15, 2.06 µM. Besides, the GI50 in the experiment with HOP-62 is 2.69 µM (inactive); in the experiment on HOP-92 it was 2.36 µM (inactive); with IGROV-1, 3.5 µM (inactive); in the experiment on LOX IMVI it was 4.4 µM (inactive); in the experiment with OVCAR-3, 3.32 µM (inactive); in the experiment on OVCAR-8, 4.19 µM (inactive). The GI50 in the experiment with SF-295 was 3.2 µM (inactive); with SK-MEL-2, 1.72 µM (inactive); with SN12C it was 6.93 µM (inactive); in the experiment on SW-620 it was 3.42 µM (inactive).

For `CN(/N=C/c1cccc2cccnc12)c1c([N+](=O)[O-])cc([N+](=O)[O-])cc1[N+](=O)[O-]`, the GI50 in the experiment with 786-0 was > 100 µM (inactive); in the experiment with A498, 25.5 µM (inactive); in the experiment with CAKI-1, > 100 µM (inactive); with HCT-116, > 100 µM (inactive); in the experiment with HCT-15, 13.2 µM; in the experiment on HOP-62, > 100 µM (inactive). Also, the GI50 was > 100 µM (inactive) in the experiment with HOP-92; 69.2 µM (inactive) with HT-29; > 100 µM (inactive) in the experiment on IGROV-1; 45.3 µM (inactive) in the experiment on LOX IMVI; > 100 µM (inactive) in the experiment on OVCAR-3; > 100 µM (inactive) with OVCAR-8. Further, the GI50 in the experiment with SF-295, in the experiment with SK-MEL-2, in the experiment with SN12C and in the experiment on SW-620 was > 100 µM (inactive) throughout.

In the case of `O=C1CCC(=O)C1=NNc1ccccc1`, the GI50 is > 100 µM (inactive) in the experiment on 786-0; 43.6 µM (inactive) in the experiment with A498; > 100 µM (inactive) with CAKI-1; > 100 µM (inactive) in the experiment with CCRF-CEM; > 100 µM (inactive) with HCT-116; above 100 µM in the experiment with HCT-15. The GI50 in the experiment on HOP-62, with HOP-92, with HT-29, with IGROV-1, in the experiment with LOX IMVI and with OVCAR-3 was > 100 µM (inactive) each time. Also, the GI50 in the experiment on OVCAR-8, in the experiment on SF-295, in the experiment with SK-MEL-2, in the experiment with SN12C and in the experiment with SW-620 was > 100 µM (inactive) in each case.

Take `NCCCCCCNCc1cccc2ccccc12`: the GI50 was > 100 µM (inactive) in the experiment on 786-0; > 100 µM (inactive) in the experiment with CAKI-1; > 10 µM (inactive) with CCRF-CEM; 95.1 µM (inactive) in the experiment with HCT-116; 74.6 µM in the experiment on HCT-15; > 100 µM (inactive) in the experiment on HOP-62. In addition, the GI50 was 38.3 µM (inactive) in the experiment with HT-29; > 100 µM (inactive) in the experiment on IGROV-1; 41 µM (inactive) with LOX IMVI; > 100 µM (inactive) with OVCAR-3; > 100 µM (inactive) in the experiment with OVCAR-8; > 100 µM (inactive) in the experiment on SF-295. For the same molecule, the GI50 in the experiment with SK-MEL-2 is 41.3 µM (inactive); in the experiment on SN12C, > 100 µM (inactive); with SR, 45.3 µM (inactive); in the experiment on SW-620 it was 85.5 µM (inactive).

As for `CCCCCCCCCCCCCCCC(=O)OCCOCCOCCOCc1ccccc1`, the GI50 in the experiment with 786-0 was > 100 µM (inactive); in the experiment on A498, > 100 µM (inactive); in the experiment on CAKI-1 it was 80.7 µM (inactive); in the experiment on HCT-116, > 100 µM (inactive); in the experiment with HOP-62 it was > 100 µM (inactive); with HOP-92 it was 21.1 µM (inactive). In addition, the GI50 with HT-29 is > 100 µM (inactive); in the experiment with IGROV-1, > 100 µM (inactive); in the experiment with LOX IMVI, > 100 µM (inactive); in the experiment with OVCAR-3, > 100 µM (inactive); in the experiment with OVCAR-8 it was > 100 µM (inactive); in the experiment on SF-295, 26 µM (inactive). Further, the GI50 in the experiment with SK-MEL-2, with SN12C and in the experiment with SW-620 was > 100 µM (inactive) in each case.

Turning to `N=C(N)SCc1cn2ccccc2n1`, the GI50 is > 100 µM (inactive) with 786-0; > 100 µM (inactive) in the experiment with CAKI-1; > 100 µM (inactive) with CCRF-CEM; > 100 µM (inactive) with HCT-116; above 100 µM with HCT-15; > 100 µM (inactive) in the experiment with HOP-62. Also, the GI50 in the experiment on HT-29, in the experiment on LOX IMVI, in the experiment on OVCAR-3, with OVCAR-8, with SF-295 and in the experiment with SK-MEL-2 was > 100 µM (inactive) each time. The GI50 in the experiment on SN12C, with SR and in the experiment on SW-620 was > 100 µM (inactive) throughout.

With `COc1ccc2cc1Oc1ccc(cc1)CC1c3cc(c(OC)cc3CCN1C)Oc1c3c(cc4c1C(C2)N(C)CC4)OCO3` (stereo unspecified), the GI50 in the experiment on 786-0 is 11.5 µM (inactive); in the experiment with CCRF-CEM, 13.2 µM (inactive); with HCT-116, 12.8 µM (inactive); in the experiment on HCT-15, 4.42 µM; in the experiment on HOP-62, 15.5 µM (inactive); in the experiment on HT-29, 2.46 µM (inactive). For the same molecule, the GI50 in the experiment on IGROV-1 is 15.1 µM (inactive); with LOX IMVI, 1.85 µM (inactive); in the experiment with OVCAR-3, 15.7 µM (inactive); in the experiment with OVCAR-8 it was 8.36 µM (inactive); with SF-295 it was 10.3 µM (inactive); in the experiment on SK-MEL-2, 5.2 µM (inactive). The figures for the GI50 with SN12C, with SR and in the experiment with SW-620 were 11.4 µM (inactive), 7.85 µM (inactive) and 13.1 µM (inactive), respectively.

With `O=C1c2cccc3c(Cl)ccc(c23)C(=O)N1CCCN1CCN(CCCN2C(=O)c3cccc4c(Cl)ccc(c34)C2=O)CC1`, the GI50 in the experiment on 786-0 is 64.4 µM (inactive); in the experiment with A498, > 100 µM (inactive); in the experiment with CAKI-1, > 100 µM (inactive); with CCRF-CEM, > 100 µM (inactive); in the experiment with HCT-116 it was 66.7 µM (inactive); in the experiment on HCT-15 it was above 100 µM. Also, the GI50 in the experiment with HOP-62, in the experiment with HOP-92, in the experiment on HT-29, with IGROV-1, with LOX IMVI and with OVCAR-3 was > 100 µM (inactive) each time. For the same molecule, the GI50 with OVCAR-8 was 50.9 µM (inactive); in the experiment with SF-295 it was 97.1 µM (inactive); in the experiment with SK-MEL-2 it was > 100 µM (inactive); with SN12C it was > 100 µM (inactive); in the experiment with SW-620, > 100 µM (inactive).

With `CC(=O)O[C@H]1CSC[C@@H](OC(C)=O)C1[N+](=O)[O-]` (stereo partly specified), the GI50 in the experiment on 786-0 is 19.2 µM (inactive); in the experiment on A498 it was > 100 µM (inactive); in the experiment on CAKI-1 it was 48.6 µM (inactive); in the experiment on CCRF-CEM, 19.5 µM (inactive); in the experiment with HCT-116, 95.3 µM (inactive); in the experiment with HCT-15, 30.1 µM. Further, the GI50 with HOP-62 is > 100 µM (inactive); in the experiment with HOP-92, 19 µM (inactive); in the experiment on HT-29, 48.2 µM (inactive); with IGROV-1 it was > 100 µM (inactive); in the experiment on OVCAR-3, 21.5 µM (inactive); in the experiment on OVCAR-8, 45.5 µM (inactive). Moreover, the GI50 is > 100 µM (inactive) in the experiment on SF-295, 27.3 µM (inactive) with SK-MEL-2, > 100 µM (inactive) in the experiment with SN12C and 27 µM (inactive) in the experiment on SW-620.

For the molecule `O=C1/C(=C/c2ccc(Br)cc2)CCC/C1=C\c1ccc(Br)cc1`, the GI50 was 11.9 µM (inactive) with 786-0; 5.32 µM (inactive) in the experiment on A498; 29.2 µM (inactive) with CAKI-1; 5.11 µM (inactive) with CCRF-CEM; 1.73 µM (inactive) with HCT-116; 5.13 µM in the experiment on HCT-15. For the same molecule, the GI50 was 20 µM (inactive) in the experiment on HOP-62; 1.88 µM (inactive) in the experiment with HT-29; 15.3 µM (inactive) with IGROV-1; 4.08 µM (inactive) with OVCAR-3; 3.95 µM (inactive) in the experiment on OVCAR-8; 20.9 µM (inactive) in the experiment with SK-MEL-2. In addition, the values for the GI50 in the experiment with SN12C and in the experiment on SW-620 were 19.7 µM (inactive) and 5.13 µM (inactive), respectively.

In the case of `COc1c(C)c(O)c2c(=O)cc(-c3ccccc3)oc2c1C`, the GI50 in the experiment on 786-0 is > 100 µM (inactive); in the experiment with A498 it was > 100 µM (inactive); in the experiment with CAKI-1 it was > 100 µM (inactive); in the experiment on CCRF-CEM, > 100 µM (inactive); with HCT-116 it was > 100 µM (inactive); in the experiment with HCT-15, above 100 µM. The GI50 with HOP-62, with HOP-92, with HT-29, in the experiment on IGROV-1, in the experiment with LOX IMVI and in the experiment on OVCAR-3 was > 100 µM (inactive) throughout. Further, the GI50 in the experiment with OVCAR-8, in the experiment on SF-295, in the experiment with SK-MEL-2, with SN12C and with SW-620 was > 100 µM (inactive) in each case.
